Drawing on ChEMBL document CHEMBL1140627, “Adaptive neuro-fuzzy inference system (ANFIS): a new approach to predictive modeling in QSAR applications: a study of neuro-fuzzy modeling of PCP-based NMDA receptor antagonists” (Bioorg Med Chem, 2007), this text covers Ki for three molecules.

Structures are written as SMILES.

The assay concerns the target Glutamate NMDA receptor. The assay is described as follows: Displacement of [3H]TCP from NMDA receptor in rat brain membrane. The assay is classed as cell membranes.

As to `NC1(c2ccc(F)cc2)CCCCC1`, affinity was put at a Ki of 5130 nM.
Take `NC1(c2cccc(O)c2)CCCCC1`: the Ki worked out at 225 nM.
For `c1ccc(C2(N3CCCCC3)CCCCC2)cc1` [PHENCYCLIDINE], the Ki stood at 70 nM.
